Test results published in patent US8778894B2, “Luteolin and diosmin/diosmetin as novel STAT3 inhibitors for treating autism” (University of South Florida, priority 2008, dated 2014).

How the values were obtained:
[1] = tested on: STAT3 activation/phosphorylation induced by IL-6; test: STAT3 activation induced by IL-6 in cultured neuronal cells (PC12 and N2a), Western blot; assay type: cell-based; conditions: dose-dependent
[2] = tested on: IL-6 induced JAK2 phosphorylation; test: IL-6 induced JAK2 phosphorylation in N2a and primary neuronal cells, Western blot; assay type: cell-based, murine; conditions: IL-6 50 ng/mL, 30 min
Description: (§1) Cerebral cortices were isolated from C57BL/6 mouse embryos, between 15 and 17 days in utero. After 15 min of incubation in trypsin (0.25%) at 37° C., individual cortices were mechanically dissociated. Cells were collected after centrifugation at 1200 rpm, resuspended in DMEM supplemented with 10% fetal calf serum, 10% horse serum, uridine ([…]; Sigma) and fluorodeoxyuridine ([…]; Sigma), and plated in 24 well collagen coated culture plates at a density of 2.5×10^5 cells per well.
(§2) N2a (murine neuroblastoma) cells, purchased from the American Type Culture Collection (ATCC, Manassas, Va.) were grown in complete EMEM supplemented with 10% fetal calf serum. Cells were plated in 24 well collagen coating culture plates at a density of 1×10^5 cells per well. After overnight incubation, N2a cells were incubated in neurobasal media supplemented with 3 mM dibutyryl cAMP in preparation for treatment. […]
(§3) Cultured cells were lysed in ice-cold lysis buffer (20 mM Tris, pH 7.5, 150 mM NaCl, 1 mM EDTA, 1 mM EGTA, 1% v/v Triton X-100, 2.5 mM sodium pyrophosphate, 1 mM β-glycerolphosphate, 1 mM Na3VO4, 1 μg/mL leupeptin, 1 mM PMSF) as described previously (Tan et al. 2002). […] Densitometric analysis was conducted using a FluorS Multiimager with Quantity One™ software (Bio-Rad, Hercules, Calif.). […]

[3] = tested on: IL-6 induced STAT3 phosphorylation (Ser727); test: IL-6 induced STAT3 phosphorylation in N2a and primary neuronal cells, Western blot; assay type: cell-based, murine; conditions: IL-6 50 ng/mL, 30 min
Description: as §1, §2, §3

IL-6/MIA adult offspring [4] = test: Social interaction test in IL-6/MIA adult offspring; assay type: in vivo, mice; conditions: for social interaction test, sniffing time: maternal S31-201 or diosmin vs IL-6/MIA, P<0.05; for social interaction test, social impairment (preference for the social chamber): maternal co-treatment with S31-201 4 μg i.p. or diosmin 10 mg/kg/day oral, P<0.005
Description: Pregnant C57BL/6 mice, embryonic day 2 (E2) were obtained from Jackson Laboratory (Bar Harbor, […].) and individually housed and maintained in an animal facility of the University of South Florida (USF). All subsequent experiments were performed in compliance with protocols approved by the USF Institutional Animal Care and Use Committee. […] Intraperitoneal PBS injection (200 μL) was used as the control for IL-6 administration. Social interaction (SI)—The testing apparatus consisted of a 60×40 cm Plexiglas box divided into three chambers. Mice were able to move between chambers through a small opening (6×6 cm) in the dividers. Plastic cylinders in each of the two side chambers contained the probe mice, and numerous 1 cm holes in the cylinders enabled test and probe mice to contact each other. Test mice were placed in the center chamber, with an overhead camera recording their movements. Mice were allowed 5 min of exploration time in the box, after which an unfamiliar, same-sex probe mouse from the same experimental group was placed in one of two restraining cylinders (Radyushkin et al. 2009). The Ethovision software (Noldus, Leesburg, Va.) program measured time spent in each of the three chambers, and social preference was defined as follows: (% time spent in the social chamber)−(% time spent in the opposite chamber). […] We also treated control mice (non-IL-6 treated) with the STAT3 inhibitor, S31. […] (10 mg/kg/day)]. […] Heightened anxiety and social interaction deficits are hallmarks of schizophrenia and autism. Reluctance to enter the center portion of a well-lit open field is usually taken as a measure of heightened anxiety under mildly stressful conditions (Smith et al., 2007).

[5] = tested on: IL-6 induced JAK2 phosphorylation; test: JAK2 phosphorylation in brain homogenates of IL-6/MIA newborn mice, Western blot; assay type: in vivo; conditions: dams IL-6 5 μg i.p. at E12.5; S31-201 4 μg i.p. or diosmin 10 mg/kg/day oral; vs IL-6 only, P<0.005
Description: (§4) Cultured cells were lysed in ice-cold lysis buffer (20 mM Tris, pH 7.5, 150 mM NaCl, 1 mM EDTA, 1 mM EGTA, 1% v/v Triton X-100, 2.5 mM sodium pyrophosphate, 1 mM β-glycerolphosphate, 1 mM Na3VO4, 1 μg/mL leupeptin, 1 mM PMSF) as described previously (Tan et al. 2002). Mouse brains were isolated under sterile conditions on ice and placed in ice-cold lysis buffer. Brains were then sonicated on ice for approximately 3 min, allowed to stand for 15 min at 4° C., then centrifuged at 15,000 rpm for 15 min at 4° C. Total protein content was estimated using the BCA protein assay (Pierce Biotechnology) and aliquots corresponding to 100 μg of total protein were electrophoretically separated using 10% Tris gels. Electrophoresed proteins were then transferred to nitrocellulose membranes (Bio-Rad, Richmond, Calif.), washed in Tris buffered saline with 0.1% Tween-20 (TBS/T), and blocked for 1 h at ambient temperature in TBS/T containing 5% (w/v) non-fat dry milk. After blocking, membranes were hybridized overnight at 4° C. with various primary antibodies. Membranes were then washed 3× for 5 min each in TBS/T and incubated for 1 h at ambient temperature with the appropriate HRP-conjugated secondary antibody (1:1000, Pierce Biotechnology). […] Densitometric analysis was conducted using a FluorS Multiimager with Quantity One™ software (Bio-Rad, Hercules, Calif.). […]

[6] = tested on: IL-6 induced STAT3 phosphorylation; test: STAT3 phosphorylation in brain homogenates of IL-6/MIA newborn mice, Western blot; assay type: in vivo; conditions: dams IL-6 5 μg i.p. at E12.5; S31-201 4 μg i.p. or diosmin 10 mg/kg/day oral; vs IL-6 only, P<0.005
Description: as §4

TNF-α [7] = test: TNF-α ELISA in brain homogenates of IL-6/MIA newborn mice; assay type: in vivo; conditions: dams IL-6 5 μg i.p.; S31-201 4 μg i.p. or diosmin 10 mg/kg/day oral; P<0.01
Description: (§5) Mouse brain homogenates were prepared as described above and used at a dilution of 1:10 in PBS for these assays. Brain tissue-solubilized cytokines were quantified using commercially available ELISAs that allow for detection of IL-1β, and TNF-α. Cytokine detection was carried out according to the manufacturer's instruction. Total protein content was determined as described above and data represented as pg of cytokine/mg total cellular protein for each cytokine.
(§6) Pro-inflammatory cytokine analysis by ELISA was conducted on these newborn mouse brain homogenates. Data are represented as mean±SD of each cytokine in brain homogenates (pg/mg total protein) from these newborn mice.

[8] = tested on: STAT3 phosphorylation (Ser727); test: STAT3 phosphorylation in brain homogenates of IL-6/MIA adult offspring, Western blot; assay type: in vivo, mice; conditions: maternal co-treatment with S31-201 or diosmin vs IL-6 only; P<0.005
Description: as §4

IL-6/MIA adult offspring [9] = conditions: for open-field test, entries into the center: adult offspring of IL-6 treated dams co-treated with S31-201 4 μg i.p. or diosmin 10 mg/kg/day oral, P<0.01
Description: Pregnant C57BL/6 mice, embryonic day 2 (E2) were obtained from Jackson Laboratory (Bar Harbor, […].) and individually housed and maintained in an animal facility of the University of South Florida (USF). All subsequent experiments were performed in compliance with protocols approved by the USF Institutional Animal Care and Use Committee. […] Intraperitoneal PBS injection (200 μL) was used as the control for IL-6 administration. Open field (OF)—The OF behavioral analysis is a test of both locomotor activity and emotionality in rodents (Radyushkin et al. 2009). Mice were placed in a 50×50 cm white Plexiglas box brightly lit by fluorescent room lighting and six 60 W incandescent bulbs approximately 1.5 m above the box. Activity was recorded by a ceiling-mounted video camera and analyzed from digital video files either by the automated tracking capabilities of Ethovision or counted using the behavior tracker (version 1.5, www.behaviortracker.com), a software-based event-recorder. The total distance moved and numbers of entries into the center of the arena (central 17 cm square) were determined in a 10 minute session. […] We also treated control mice (non-IL-6 treated) with the STAT3 inhibitor, S31. […] (10 mg/kg/day)]. […] Heightened anxiety and social interaction deficits are hallmarks of schizophrenia and autism. Reluctance to enter the center portion of a well-lit open field is usually taken as a measure of heightened anxiety under mildly stressful conditions (Smith et al., 2007).

IL-1β [10] = test: IL-1β ELISA in brain homogenates of IL-6/MIA newborn mice; assay type: in vivo; conditions: dams IL-6 5 μg i.p.; S31-201 4 μg i.p. or diosmin 10 mg/kg/day oral; P<0.01
Description: as §5, §6

TNF-α [11] = test: TNF-α ELISA in brain homogenates of IL-6/MIA adult offspring; assay type: in vivo, mice; conditions: maternal co-treatment with S31-201 or diosmin vs IL-6 only; P<0.05
Description: as §5
(§7) At sacrifice, brain homogenates were prepared from offspring of mice treated with IL-6, IL-6/S31-201, IL-6/Diosmin or PBS (control) (n=8, 4 female/4 male). Pro-inflammatory cytokine analysis by ELISA was conducted on these mouse brain homogenates. Data are represented as mean±SD of each cytokine in brain homogenates (pg/mg total protein) from these mice.

IL-1β [12] = test: IL-1β ELISA in brain homogenates of IL-6/MIA adult offspring; assay type: in vivo, mice; conditions: maternal co-treatment with S31-201 or diosmin vs IL-6 only; P<0.05
Description: as §5, §7

[13] = 500-2,000 mg per day orally for up to one year; cited from earlier work
[14] = after intestinal transformation of diosmin to diosmetin and absorption; cited from earlier work
[15] = dose dependent, N2a and primary neurons

open-field behaviour, inhibitor-treated control (non-IL-6 injected) mice vs PBS-treated mice (IL-6/MIA adult offspring [9]; mouse, in vivo) | Compound | inhibition of activation/phosphorylation of STAT3 induced by IL-6 [1] | concentration at which significant reductions of JAK2 phosphorylation begin [2, 15] [µM] | effect on apoprotein level of JAK2 ([2]; luteolin 0-20 μM) | concentration at which significant reductions of STAT3 (Ser727) phosphorylation begin [3, 15] [µM] | effect on apoprotein level of STAT3 ([3]; luteolin 0-20 μM) | social interaction test, sniffing time (IL-6/MIA adult offspring [4]) | social interaction test, social impairment (preference for the social chamber) (IL-6/MIA adult offspring [4]) | IL-6 induced JAK2 phosphorylation in newborn brain homogenates [5] | IL-6 induced STAT3 phosphorylation in newborn brain homogenates [6] | reduction of the IL-6 induced increase in TNF-α level, newborn brain homogenates (TNF-α [7]) [%] | STAT3 phosphorylation in adult offspring brain homogenates [8] | open-field test, entries into the center (IL-6/MIA adult offspring [9]) | reduction of the IL-6 induced increase in IL-1β level, newborn brain homogenates (IL-1β [10]) [%] | TNF-α cytokine level in adult offspring brain homogenates (TNF-α [11]) | IL-1β cytokine level in adult offspring brain homogenates (IL-1β [12]) | safety and tolerability in clinical trials [13] | plasma half-life [14] [h]
 | O=c1cc(-c2ccc(O)c(O)c2)oc2cc(O)cc(O)c12 [luteolin, 3′,4′,5,7-tetrahydroxyflavone] | inhibit activation/phosphorylation of STAT3 | 10 | did not affect | 10 | did not affect |  |  |  |  |  |  |  |  |  |  |  | 
did not find a significance | Cc1ccc(S(=O)(=O)OCC(=O)Nc2ccc(C(=O)O)c(O)c2)cc1 [S31-201] |  |  |  |  |  | increase in sniffing compared to IL-6/MIA mice | significantly attenuated | significantly reduce | significantly reduce | ~50 | significant reduction | entering the center more often than IL-6 treated animals | ~50 | significantly reduces | significantly reduces |  | 
 | COc1ccc(-c2cc(=O)c3c(O)cc(O[C@@H]4O[C@H](CO[C@@H]5O[C@@H](C)[C@H](O)[C@@H](O)[C@H]5O)[C@@H](O)[C@H](O)[C@H]4O)cc3o2)cc1O [diosmin] | inhibit activation/phosphorylation of STAT3 |  |  |  |  | increase in sniffing compared to IL-6/MIA mice | significantly attenuated | significantly reduce | significantly reduce | ~50 | significant reduction | entering the center more often than IL-6 treated animals | ~50 | significantly reduces | significantly reduces | excellent safety profile and were well tolerated | 
 | COc1ccc(-c2cc(=O)c3c(O)cc(O)cc3o2)cc1O [diosmetin] |  |  |  |  |  |  |  |  |  |  |  |  |  |  |  |  | 26 to 43
